Measurements from the NIST ThermoML archive (doi:10.1021/acs.jced.6b00673).
Several values for one entry are separate records, joined by “and”; a condition that tells them apart may be missing. Identical values can stand only once. Numbers after ± are expanded uncertainties.

Conditions: Liquid, Closed cell (Static) method

## F/C=C/C(F)(F)F [trans-1,3,3,3-tetrafluoropropene]
235.01 K
  vapor or sublimation pressure: 40.19 ± 1.2 kPa
235.17 K
  vapor or sublimation pressure: 40.58 ± 1.2 kPa
239.05 K
  vapor or sublimation pressure: 49.6 ± 1.2 kPa
239.07 K
  vapor or sublimation pressure: 49.6 ± 1.2 kPa and 49.61 ± 1.2 kPa
242.03 K
  vapor or sublimation pressure: 57.54 ± 1.2 kPa
242.04 K
  vapor or sublimation pressure: 57.54 ± 1.2 kPa
245.15 K
  vapor or sublimation pressure: 66.85 ± 1.2 kPa
245.16 K
  vapor or sublimation pressure: 66.94 ± 1.2 kPa and 66.9 ± 1.2 kPa
247.99 K
  vapor or sublimation pressure: 76.45 ± 1.2 kPa
248.02 K
  vapor or sublimation pressure: 76.52 ± 1.2 kPa
249.38 K
  vapor or sublimation pressure: 81.49 ± 1.2 kPa
250.68 K
  vapor or sublimation pressure: 86.48 ± 1.2 kPa
250.72 K
  vapor or sublimation pressure: 86.57 ± 1.2 kPa
252.24 K
  vapor or sublimation pressure: 92.69 ± 1.2 kPa and 92.75 ± 1.2 kPa
252.58 K
  vapor or sublimation pressure: 94.2 ± 1.2 kPa
256.25 K
  vapor or sublimation pressure: 110.47 ± 1.2 kPa
258.72 K
  vapor or sublimation pressure: 122.66 ± 1.2 kPa
258.74 K
  vapor or sublimation pressure: 122.75 ± 1.2 kPa
262.01 K
  vapor or sublimation pressure: 140.52 ± 1.2 kPa
264.78 K
  vapor or sublimation pressure: 157.04 ± 1.2 kPa
268.27 K
  vapor or sublimation pressure: 179.98 ± 1.2 kPa
271.72 K
  vapor or sublimation pressure: 205.14 ± 1.2 kPa
274.51 K
  vapor or sublimation pressure: 227.45 ± 1.2 kPa
277.43 K
  vapor or sublimation pressure: 252.66 ± 1.2 kPa
280.73 K
  vapor or sublimation pressure: 283.77 ± 1.3 kPa
284.07 K
  vapor or sublimation pressure: 318.06 ± 1.3 kPa
287.25 K
  vapor or sublimation pressure: 353.65 ± 1.3 kPa
290.51 K
  vapor or sublimation pressure: 393.03 ± 1.3 kPa
293.33 K
  vapor or sublimation pressure: 429.86 ± 1.4 kPa
296.67 K
  vapor or sublimation pressure: 476.7 ± 1.4 kPa
299.73 K
  vapor or sublimation pressure: 523.05 ± 1.4 kPa
302.71 K
  vapor or sublimation pressure: 571.25 ± 1.4 kPa
303.98 K
  vapor or sublimation pressure: 592.72 ± 1.5 kPa
306.42 K
  vapor or sublimation pressure: 635.82 ± 1.5 kPa and 635.84 ± 1.5 kPa
308.5 K
  vapor or sublimation pressure: 674.57 ± 1.5 kPa
311.91 K
  vapor or sublimation pressure: 741.32 ± 1.6 kPa and 741.51 ± 1.6 kPa
314.3 K
  vapor or sublimation pressure: 791.29 ± 1.6 kPa
314.31 K
  vapor or sublimation pressure: 791.42 ± 1.6 kPa
316.04 K
  vapor or sublimation pressure: 829.03 ± 1.7 kPa and 829.14 ± 1.7 kPa
318.53 K
  vapor or sublimation pressure: 885.61 ± 1.7 kPa
319.38 K
  vapor or sublimation pressure: 905.41 ± 1.8 kPa and 905.49 ± 1.8 kPa
320.96 K
  vapor or sublimation pressure: 943.34 ± 1.8 kPa
323.48 K
  vapor or sublimation pressure: 1006.1 ± 1.9 kPa
325.23 K
  vapor or sublimation pressure: 1051.7 ± 1.9 kPa
327.75 K
  vapor or sublimation pressure: 1119.9 ± 2 kPa
329.78 K
  vapor or sublimation pressure: 1177.5 ± 2.1 kPa
332.09 K
  vapor or sublimation pressure: 1245.2 ± 2.1 kPa
334.3 K
  vapor or sublimation pressure: 1312.8 ± 2.2 kPa
336.51 K
  vapor or sublimation pressure: 1383.2 ± 2.3 kPa
338.43 K
  vapor or sublimation pressure: 1446.6 ± 2.4 kPa
340.44 K
  vapor or sublimation pressure: 1515 ± 2.5 kPa
342.65 K
  vapor or sublimation pressure: 1593.5 ± 2.6 kPa
344.94 K
  vapor or sublimation pressure: 1678 ± 2.7 kPa
347.25 K
  vapor or sublimation pressure: 1766.4 ± 2.8 kPa
349.48 K
  vapor or sublimation pressure: 1855 ± 2.9 kPa
351.21 K
  vapor or sublimation pressure: 1926.4 ± 3 kPa
353.31 K
  vapor or sublimation pressure: 2015.3 ± 3.1 kPa
355.52 K
  vapor or sublimation pressure: 2112.5 ± 3.3 kPa
358.52 K
  vapor or sublimation pressure: 2250 ± 3.5 kPa
360.61 K
  vapor or sublimation pressure: 2349.9 ± 3.7 kPa
362.53 K
  vapor or sublimation pressure: 2444.8 ± 3.8 kPa
364.71 K
  vapor or sublimation pressure: 2556.2 ± 4 kPa
366.86 K
  vapor or sublimation pressure: 2669.6 ± 4.2 kPa
367.85 K
  vapor or sublimation pressure: 2724.3 ± 4.2 kPa
368.95 K
  vapor or sublimation pressure: 2784.2 ± 4.3 kPa
369.85 K
  vapor or sublimation pressure: 2835.5 ± 4.4 kPa
371.01 K
  vapor or sublimation pressure: 2900.6 ± 4.5 kPa
371.91 K
  vapor or sublimation pressure: 2953.8 ± 4.6 kPa
372.81 K
  vapor or sublimation pressure: 3005.5 ± 4.7 kPa
374.07 K
  vapor or sublimation pressure: 3082.4 ± 4.8 kPa
374.9 K
  vapor or sublimation pressure: 3131.7 ± 4.9 kPa
376.04 K
  vapor or sublimation pressure: 3203.1 ± 5 kPa
377.04 K
  vapor or sublimation pressure: 3265.4 ± 5.1 kPa
377.94 K
  vapor or sublimation pressure: 3323.5 ± 5.2 kPa
378.57 K
  vapor or sublimation pressure: 3364.9 ± 5.2 kPa
379.16 K
  vapor or sublimation pressure: 3402.3 ± 5.3 kPa
379.51 K
  vapor or sublimation pressure: 3425.9 ± 5.3 kPa
379.87 K
  vapor or sublimation pressure: 3450.3 ± 5.4 kPa
380.02 K
  vapor or sublimation pressure: 3459.7 ± 5.4 kPa
380.51 K
  vapor or sublimation pressure: 3493.5 ± 5.4 kPa
